{"source": "patent US10947197B2", "about": "“Synthesis of the radiolabeled prostate-specific membrane antigen (PSMA) inhibitor [18F]DCFPyL” (The Johns Hopkins University, priority 2016, dated 2021)", "format_in_all_cases": "physicochemical", "key": {"[1]": {"test": "Retesting at radiotracer expiry: visual inspection (appearance)", "details": "n = 3, specification: clear colorless solution, no visible particulate matter", "text": "Using remote handling equipment and appropriate radiation shielding (leaded glass), the vial containing the [^18F]DCFPyL product was visually inspected under bright light. The product met this acceptance specification if it was clear and colorless with no evidence of foreign matter."}, "[2]": {"test": "Retesting at radiotracer expiry: radiochemical purity (HPLC) after storage under ambient conditions", "details": "for Expiry radiochemical purity, %: ambient storage", "method": "Using the same HPLC system described for the radiochemical identity test, an appropriate volume (50 μL) of [^18F]DCFPyL was injected at a quantity injected that avoids uncorrected dead-time loss (for main peak) in the radioactive detection system. The percent radiochemical purity of [^18F]DCFPyL was determined by dividing the radioactivity associated with the [^18F]DCFPyL peak by total activity assayed in the chromatogram multiplied by 100. The product met this acceptance specification if the radiochemical purity was greater than or equal to 95%. A sample QC chromatogram is shown in FIG. 7 (DCFPyL−RT=7.6 min., k′=8.7)."}, "[3]": {"test": "Retesting at radiotracer expiry: pH by indicator paper", "details": "specification 4.5-8.5; for pH, expiry: average n = 3, 360 min after EOS", "text": "A drop of the [^18F]DCFPyL final product matrix was applied to pH indicator paper (ColorPhast-Indicator strip—pH 2-9; sensitivity of 0.3 to 0.5 units, EMD Chemicals Inc., Gibbstown, N.J.). The strip color was matched to an indicator chart. The product met this acceptance specification if the pH was between 4.5 and 8.5."}, "[4]": {"details": "RFM synthesis (head prints REM)"}, "[5]": {"details": "large-scale RFM batch, 4.5 GBq/mL (122 mCi/mL), added sodium ascorbate, 99.7% at EOS"}}}
{"smiles": "O=C(O)CC[C@H](NC(=O)N[C@@H](CCCCNC(=O)c1ccc([18F])nc1)C(=O)O)C(=O)O", "note": "[[^18F]DCFPyL, 2-(3-{1-carboxy-5-[(6-[^18F]fluoro-pyridine-3-carbonyl)-amino]-pentyl}-ureido)-pentanedioic acid]", "values": [{"measurement": "Appearance, 360 min after EOS", "setting": "[1]; ELIXYS synthesis", "result": "Conforms"}, {"measurement": "Appearance, 360 min after EOS", "setting": "[1]; [4]", "result": "Conforms"}, {"measurement": "Appearance, 240 min after EOS", "setting": "[1]; original synthesis", "result": "Conforms"}, {"measurement": "Expiry radiochemical purity, %", "setting": "[2]; ELIXYS synthesis, average n = 3, expiry 360 min after EOS", "result": 100, "unit": "%"}, {"measurement": "Expiry radiochemical purity, %", "setting": "[2]; RFM synthesis (head prints REM), average n = 3, expiry 360 min after EOS", "result": 100, "unit": "%"}, {"measurement": "QC acceptance specifications at the 6-hour expiry", "setting": "[2]; highest product yield validation run, 1.6 GBq/mL (44 mCi/mL)", "result": "meet all QC acceptance specifications"}, {"measurement": "radiochemical purity 3 hours post EOS", "setting": "[2]; [5]", "result": 98.8, "unit": "%"}, {"measurement": "radiochemical purity 4 hours post EOS", "setting": "[2]; [5]", "result": 98.5, "unit": "%"}, {"measurement": "radiochemical purity 6 hours post EOS", "setting": "[2]; [5]", "result": 98.2, "unit": "%"}, {"measurement": "radiochemical purity at the 6-hour expiry", "setting": "[2]; large-scale RFM batch, 5.7 GBq/mL (153 mCi/mL), no sodium ascorbate, 97.6% at EOS", "result": 51.1, "unit": "%"}, {"measurement": "Expiry radiochemical purity, %", "setting": "[2]; original first-in-human synthesis, average n = 3, expiry 240 min after EOS", "result": 100, "unit": "%"}, {"measurement": "pH, expiry", "setting": "[3]; ELIXYS synthesis", "result": 5}, {"measurement": "pH, expiry", "setting": "[3]; [4]", "result": 5}, {"measurement": "pH, initial", "setting": "[3]; original synthesis, average n = 3, second row headed pH, initial, beside pH, expiry", "result": 5}]}
